Assay results: patent publication US7541341B2, “Glucopyranosyloxybenzylbenzene derivatives and medicinal use thereof” (Kissei Pharmaceutical Co., Ltd., priority 2001, dated 2009)

Tests used:
[1] = system: SD rats; assay: Assay for the facilitatory effect on urinary glucose excretion; type: in vivo; conditions: fasted male SD rats, sucrose 2.5 g/kg load, 24 hours urine
Procedure: Assay for the Facilitatory Effect on Urinary Glucose Excretion
As experimental animals, overnight fasted SD rats (Japan SLC. Inc., male, 7-8 weeks of age, 205-272 g) were used. A Test compound was suspended in 0.5% sodium carboxymethylcellulose solution at the concentration of 2 mg/mL. When a homogenous suspension was not obtained in this condition, the test compound was dissolved in ethanol at the concentration of 100 mg/mL of its active form and then 2 mg/mL suspension was obtained by adding this solution to 49 times volumes of 0.5% sodium carboxymethylcellulose solution. Apart of this suspension was diluted with 0.5% sodium carboxymethylcellulose solution and then 0.6 and 0.2 mg/mL suspensions were prepared. After the body weights of rats were measured, the test suspension was orally administered at the dose of 5 mL/kg (1, 3 and 10 mg/kg). For control, just only 0.5% sodium carboxymethylcellulose solution was orally administered at the dose of 5 mL/kg. Immediately after this oral administration, 500 g/L sucrose solution was orally administered at the dose of 5 mL/kg (2.5 g/kg). The oral administration was performed with gastric tube for rat and 2.5 mL syringe. The head count in one group was 3. Collection of urine was performed in metabolic cage after the sucrose administration was finished. The sampling time for collection of urine was 24 hours after the sucrose administration. After collection of urine was finished, the urine volume was recorded and the urinary glucose concentration was measured. The glucose concentration was measured with a kit for laboratory test: Glucose B-Test WAKO (Wako Pure Chemical Industries, Ltd.). The amount of urinary glucose excretion in 24 hours per 200 g of body weight was calculated from urine volume, urinary glucose concentration and body weight.

[2] = target: T1, human SGLT2 (Homo sapiens, UniProt P31639, I433V); assay: Assay for inhibitory effect on human SGLT2 activity (uptake of methyl-α-D-glucopyranoside in COS-7 cells transiently expressing human SGLT2); type: cell-based; conditions: methyl-α-D-(U-14C)glucopyranoside uptake, 37° C., 2 hours
T1 construct: expressed in transfected cells; host or cells: COS-7 cells (RIKEN CELL BANK RCB0539), transient, electroporation of KL29
T1 sequence (P31639 1-672 I433V): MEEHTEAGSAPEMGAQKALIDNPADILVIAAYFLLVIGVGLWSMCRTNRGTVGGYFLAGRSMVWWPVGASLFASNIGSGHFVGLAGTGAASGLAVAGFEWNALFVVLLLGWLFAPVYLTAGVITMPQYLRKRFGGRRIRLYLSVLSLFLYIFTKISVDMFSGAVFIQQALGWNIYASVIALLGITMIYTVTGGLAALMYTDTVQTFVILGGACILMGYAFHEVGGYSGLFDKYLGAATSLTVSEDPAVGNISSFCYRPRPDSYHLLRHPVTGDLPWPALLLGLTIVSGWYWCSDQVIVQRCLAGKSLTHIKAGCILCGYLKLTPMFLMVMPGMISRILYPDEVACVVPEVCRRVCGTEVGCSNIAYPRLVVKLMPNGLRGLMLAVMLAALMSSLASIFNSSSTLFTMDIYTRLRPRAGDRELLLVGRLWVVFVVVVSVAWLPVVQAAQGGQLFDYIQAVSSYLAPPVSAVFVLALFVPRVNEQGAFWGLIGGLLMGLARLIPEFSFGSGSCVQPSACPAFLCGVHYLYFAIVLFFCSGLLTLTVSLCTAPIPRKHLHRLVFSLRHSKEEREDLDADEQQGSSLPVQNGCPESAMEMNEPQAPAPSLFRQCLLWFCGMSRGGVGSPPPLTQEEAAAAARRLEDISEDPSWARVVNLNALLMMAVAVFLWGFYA
Procedure: Assay for Inhibitory Effect on Human SGLT2 Activity
1) Construction of the Plasmid Vector Expressing Human SGLT2
Preparation of the cDNA library for PCR amplification was performed by reverse transcription of a total RNA deprived from human kidney (Ori gene) with oligo dT as the primer, using […] Preamplification System (Gibco-BRL: LIFE TECHNOLOGIES). The DNA fragment coding for human SGLT2 was amplified by the PCR reaction, in which the human kidney cDNA library described above was used as the template and the following oligo nucleotides 0702F and 0712R, presented as SEQ ID NO:1 and SEQ ID NO:2 respectively, were used as the primers. The amplified DNA fragment was ligated into pCR-Blunt (Invitrogen), a vector for cloning, according to standard method of the kit. The Escherichia coli HB101 was transformed according to usual method and then selection of the transformants was performed on the LB agar medium containing 50 μg/mL of kanamycin. […] After plasmid DNA was extracted and purified from this transformant, the base sequence of the DNA fragment inserted at the multi-cloning sites of the vector pcDNA3.1 (−) Myc/His-B was analyzed. […]

[3] = system: SD rat; assay: Acute toxicity test; type: in vivo; conditions: oral 1000 mg/kg; male SD rat, 5 animals in each group; observation for 24 hours
Procedure: A 100 mg/mL suspension was prepared by adding 0.5% sodium carboxymethylcellulose solution to a test compound. Five week old male SD rat (CLEA JAPAN, INC., 124-128 g, 5 animals in each group) were used as test animals after fasted overnight. The above-mentioned suspension was orally administered at the dose 10 mL/kg (1000 mg/kg) to the test animals, and observation was performed for 24 hours.

IC50 [2] [nM]	SMILES	Amount of urinary glucose excretion ([1]; oral dose 1 mg/kg)	Amount of urinary glucose excretion ([1]; oral dose 3 mg/kg)	Amount of urinary glucose excretion ([1]; oral dose 10 mg/kg)	Number of death [3]
–	CC(=O)OCCc1ccc(Cc2ccccc2O[C@@H]2O[C@H](COC(C)=O)[C@@H](O)[C@H](O)[C@H]2O)cc1 [Example 40, 2-[4-(2-Acetoxyethyl)benzyl]phenyl 6-O-acetyl-β-D-glucopyranoside]	0.0 mg/24 hours/200 g body weight	4.1 mg/24 hours/200 g body weight	55.9 mg/24 hours/200 g body weight	–
120	OCC=Cc1ccc(Cc2ccccc2OC2OC(CO)C(O)C(O)C2O)cc1 [Reference Example 49, (E)-2-[4-(3-Hydroxy-1-prop-1-en-1-yl)benzyl]phenyl β-D-glucopyranoside]	–	–	–	–
–	CCOC(=O)OC[C@H]1O[C@@H](Oc2cc(CO)ccc2Cc2ccc(CC)cc2)[C@H](O)[C@@H](O)[C@@H]1O [Example 1, 2-(4-Ethylbenzyl)-5-hydroxymethylphenyl 6-O-ethoxycarbonyl-β-D-glucopyranoside]	7.0 mg/24 hours/200 g body weight	82.1 mg/24 hours/200 g body weight	195.8 mg/24 hours/200 g body weight	0/5
